From the NIST ThermoML archive (doi:10.1021/je0301500)

Tests used:
[1] = 303.15 K; for surface tension liquid-gas: Ring tensiometer; for viscosity / mass density: 101.33 kPa, Liquid; for viscosity: Falling or rolling sphere viscometry; for mass density: Vibrating tube method
[2] = xn = mol fraction of the nth substance listed; conditions: 303.15 K; for surface tension liquid-gas: Ring tensiometer; for viscosity / mass density: 101.33 kPa, Liquid; for viscosity: Falling or rolling sphere viscometry; for mass density: Vibrating tube method

CO [methanol]
[1]
Conditions | mass density [kg/m3] | surface tension liquid-gas [mN/m] | viscosity [mPa·s]
– | 781.91 | 21.68 | 0.504

CCCC(=O)OCC [ethyl butanoate] + CO
[2]
Conditions | mass density [kg/m3] | surface tension liquid-gas [mN/m] | viscosity [mPa·s]
x1 = 0.05 | – | 21.86 | –
x1 = 0.101 | – | 22.03 | –
x1 = 0.104 | – | – | 0.511
x1 = 0.15 | – | 22.22 | –
x1 = 0.1993 | 820.83 | – | –
x1 = 0.2 | – | 22.36 | –
x1 = 0.2036 | – | – | 0.517
x1 = 0.299 | – | 22.65 | –
x1 = 0.3 | 832.61 | – | –
x1 = 0.3147 | – | – | 0.522
x1 = 0.4 | 841.45 | 22.85 | –
x1 = 0.4147 | – | – | 0.529
x1 = 0.449 | 845.03 | – | –
x1 = 0.474 | 846.71 | – | –
x1 = 0.496 | – | 22.99 | –
x1 = 0.4995 | 848.3 | – | –
x1 = 0.5064 | – | – | 0.535
x1 = 0.5997 | 853.94 | – | –
x1 = 0.605 | – | 23.12 | –
x1 = 0.6226 | – | – | 0.543
x1 = 0.65 | 856.33 | – | –
x1 = 0.6976 | – | – | 0.551
x1 = 0.7 | – | 23.18 | –
x1 = 0.7495 | 860.43 | – | –
x1 = 0.8 | – | 23.29 | –
x1 = 0.8054 | – | – | 0.565
x1 = 0.883 | – | 23.35 | –
x1 = 0.899 | 865.48 | – | –
x1 = 0.9001 | 865.54 | – | –
x1 = 0.9004 | – | – | 0.577
x1 = 0.9465 | 866.88 | – | –

CCCC(=O)OCC [ethyl butanoate] + O
[2]
Conditions | mass density [kg/m3] | surface tension liquid-gas [mN/m] | viscosity [mPa·s]
x2 = 0.0128 | – | – | 0.587
x2 = 0.018 | – | 23.46 | –
x2 = 0.019 | 868.19 | – | –
x2 = 0.0319 | – | – | 0.584
x2 = 0.033 | 868.46 | – | –
x2 = 0.039 | 868.71 | – | 0.586
x2 = 0.041 | – | 23.53 | –
x2 = 0.0488 | – | – | 0.584
x2 = 0.055 | – | 23.6 | –
x2 = 0.056 | 868.98 | – | –
x2 = 0.0588 | – | – | 0.597

CCCC(=O)OCC [ethyl butanoate]
[1]
Conditions | mass density [kg/m3] | surface tension liquid-gas [mN/m] | viscosity [mPa·s]
– | 868.21 | 23.4 | 0.591

CO [methanol] + O
[2]
Conditions | mass density [kg/m3]
x2 = 0.1031 | 799.74
x2 = 0.2055 | 818.52
x2 = 0.3014 | 836.97
x2 = 0.4013 | 857.06
x2 = 0.4994 | 877.48
